Structures are written as SMILES. pIC50: −log10 of the molar value. Where two headings read alike, the source gives them in different places.

In experiment [1] the target is T1, IL-17A/F (Homo sapiens, UniProt Q16552+Q96PD4).
T1 sequence (Q16552 24-155): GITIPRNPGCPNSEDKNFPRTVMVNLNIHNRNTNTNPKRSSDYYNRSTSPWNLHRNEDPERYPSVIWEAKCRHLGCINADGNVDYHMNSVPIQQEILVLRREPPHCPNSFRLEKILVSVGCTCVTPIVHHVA
T1 sequence (Q96PD4 31-163): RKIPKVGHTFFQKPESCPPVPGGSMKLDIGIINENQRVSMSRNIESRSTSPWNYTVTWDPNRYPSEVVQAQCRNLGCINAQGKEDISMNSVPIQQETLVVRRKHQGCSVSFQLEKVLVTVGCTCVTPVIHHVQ
Kind of experiment: IL-17A/F HEK-Blue Cell Assay. It is filed as cell-based. The note with it: HEK-Blue IL-17 reporter cells, IL-17A/F stimulation, 20 hours, SEAP readout; for IC50: read-out: IL17AF HEK Blue pIC50 (converted).

Experiment [2] has as its target T2, IL-17A/A (Homo sapiens, UniProt Q16552).
T2 sequence (Q16552 24-155): T1 sequence (Q16552 24-155)
In words: IL-17A/A HEK-Blue Cell Assay. The format is cell-based. The note with it: IL-17A/A stimulation, 20 hours, SEAP readout; for IC50: HEK-Blue IL-17 reporter cells, read-out: IL17 AA HEK-5 pIC50 (converted). In short, it runs like this: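 Cells co-expressing IL-17RA, IL-17RC and Act1 received titrated compound, top final 10 uM in 0.1% DMSO, immediately before IL-17A/A stimulation.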

On to `CCn1nccc1C(=O)N[C@H](C(=O)Nc1ccc(C(C(NC(=O)[C@H](C)OC)C(=O)N2CCN(C)[C@H](C)C2)C(F)(F)F)cc1F)C(C1CC1)C1CC1` (single isomer, unassigned) [Compound 357], for which the IC50 in experiment [1] and in experiment [2] was 100 to 10000 nM each time.

Turning to `CCn1nccc1C(=O)N[C@H](C(=O)Nc1ccc([C@H](C)[C@@H](NC(=O)[C@H](C)Nc2ncccn2)C(=O)N2CCN(C)[C@H](C)C2)cc1F)C(C1CC1)C1CC1` [Compound 306], the IC50 in experiment [1] and in experiment [2] was below 10 nM throughout.

For `CCn1nccc1C(=O)N[C@H](C(=O)Nc1ccc([C@H](C)[C@@H](NC(=O)C(C)C(F)(F)F)C(=O)N2CCN(C)CC2)cc1F)C(C1CC1)C1CC1` (single isomer, unassigned) [Compound 333], the IC50 in experiment [1] is 100 to 10000 nM; in experiment [2] it was 10 to 100 nM.

As a reminder, the pIC50 is −log10 of the IC50, conventionally taken in molar units. `CCc1nonc1C(=O)N[C@H](C(=O)Nc1ccc([C@H](C)[C@@H](NC(=O)CF)C(=O)N2CCNC(CF)C2)cc1F)C(C1CC1)C1CC1` (single isomer, unassigned) [Compound 302]: the IC50 in experiment [1] is 100 to 10000 nM. Also, the pIC50 in experiment [2] (IL17 AA HEK-5 pIC50, HEK-Blue IL-17 reporter cells) was 7.00 to 8.00.

On to `CCn1nccc1C(=O)N[C@H](C(=O)Nc1ccc([C@H](C)[C@@H](NC(=O)C(C2CC2)C2CC2)C(=O)N2CCN(C)[C@H](C)C2)cc1F)C(C1CC1)C1CC1` [Compound 319], for which the IC50 was 10 to 100 nM in experiment [1] and below 10 nM in experiment [2].

For `COC(=O)N1CCC[C@H]1C(=O)N[C@@H](C(=O)N1CCN(C)CC1)[C@@H](C)c1ccc(NC(=O)[C@@H](NC(=O)C2(F)CC2)C(C2CC2)C2CC2)c(F)c1` [Compound 280], the IC50 is 100 to 10000 nM in experiment [1] and 10 to 100 nM in experiment [2].

In the case of `COCC(=O)N[C@@H](C(=O)N1CCN(C)CC1)[C@@H](C)c1ccc(NC(=O)[C@@H](NC(=O)c2ccnn2C(C)C)C(C2CC2)C2CC2)c(F)c1` [Compound 345], the figures for the IC50 in experiment [1] and in experiment [2] were 10 to 100 nM and below 10 nM, respectively.

In the case of `CCOC(C)C(=O)N[C@@H](C(=O)N1CCN(C)[C@H](C)C1)[C@@H](C)c1ccc(NC(=O)[C@@H](NC(=O)C2(F)CC2)C(C2CC2)C2CC2)c(F)c1` (single isomer, unassigned) [Compound 322], the “IL17AF HEK Blue pIC50” value in experiment [1] is on record as “C (7>C≥5)”. Also, the IC50 in experiment [2] was below 10 nM.

Turning to `CCn1nccc1C(=O)N[C@H](C(=O)Nc1ccc([C@H](C)[C@@H](NC(=O)[C@@H](C)F)C(=O)N2CCN(C)[C@H](C)C2)cc1F)C(C1CC1)C1CC1` [Compound 349], the IC50 was 100 to 10000 nM in experiment [1] and below 10 nM in experiment [2].

With `CCOC(=O)N[C@@H](C)C(=O)N[C@@H](C(=O)N1CCN(C)CC1)[C@@H](C)c1ccc(NC(=O)[C@@H](NC(=O)C2(F)CC2)C(C2CC2)C2CC2)c(F)c1` [Compound 269], the IC50 in experiment [1] was 100 to 10000 nM; in experiment [2], below 10 nM.

Turning to `C[C@@H]1CN(C(=O)[C@H](NC(=O)N(C)C2CC2)[C@@H](C)c2ccc(NC(=O)[C@@H](NC(=O)C3(F)CC3)C(C3CC3)C3CC3)c(F)c2)CCN1C` [Compound 271], the IC50 in experiment [1] is 100 to 10000 nM; in experiment [2] it was below 10 nM.

In the case of `CCOC(=O)N1CC[C@H]1C(=O)N[C@@H](C(=O)N1CCN(C)[C@H](C)C1)[C@@H](C)c1ccc(NC(=O)[C@@H](NC(=O)C2(F)CC2)C(C2CC2)C2CC2)c(F)c1` [Compound 275], the IC50 in experiment [1] is 100 to 10000 nM; in experiment [2], below 10 nM.

Regarding `CCn1nccc1C(=O)N[C@H](C(=O)Nc1ccc([C@H](C)[C@@H](NC(=O)N(C)C2CC2)C(=O)N2CCN(C)[C@H](C)C2)cc1F)C(C1CC1)C1CC1` [Compound 291], the IC50 in experiment [1] and in experiment [2] was below 10 nM throughout.

Take `COC(=O)N1CC[C@H]1C(=O)N[C@@H](C(=O)N1CCN(C)CC1)[C@@H](C)c1ccc(NC(=O)[C@@H](NC(=O)C2(F)CC2)C(C2CC2)C2CC2)c(F)c1` [Compound 277]: the results for the IC50 in experiment [1] and in experiment [2] were 100 to 10000 nM and 10 to 100 nM, respectively.
